Experimental data as given in PMC9027532, “Preclinical Pharmacokinetic Studies of a Novel Diuretic Inhibiting Urea Transporters” (Molecules, 2022).
“And” between values parts separate entries of the source, which are not always exact repeats. Identical values can stand only once.

Tests used:
[1] = Blood plasma ratio, rat blood; type: in vitro ADME, SD rats; conditions: for Blood Plasma Ratio: rat
Procedure: The BPR of 25a in rats and humans was assessed. […] In addition, a significant species difference between rats and humans was observed (p < 0.05, Student’s t-test, n = 3).
The blood plasma ratio of 25a was investigated as previously reported. Briefly, fresh whole blood was collected into collection tubes containing K2–EDTA as an anticoagulant from SD rats and healthy volunteers. Blood spiked with 50, 500, and 2500 ng/mL 25a was incubated in the incubator with 5% CO2 at 37 ± 1 °C for 1 h. Some of the incubated samples were processed as blood samples; the remaining incubated samples were centrifuged to generate plasma samples. The concentration of 25a in samples was determined using the validated LC–MS/MS method.

[2] = Excretion experiment in rats (urine, feces); type: in vivo, SD rats; conditions: single oral dose 100 mg/kg
Procedure: The cumulative excretion ratios of unchanged 25a in the urine, feces, and bile of rats after a single oral dose at 100 mg/kg were 0.14% ± 0.05%, 3.16% ± 0.96%, and 0.018% ± 0.006%, respectively (Figure 6 and Tables S5–S7). […] Further phenotyping and metabolite identification studies should be conducted to elucidate the major elimination forms of 25a in the future.
Four SD rats were adapted in metabolic cages for 3 days in advance and then administrated with 25a at 100 mg/kg orally. Feces and urine were collected and weighed at 0–6 h, 6–12 h, […], 24–36 h, 36–48 h, 48–60 h, and 60–72 h after administration. Parallelly, four SD rats received bile duct cannulation and were given a single dose of 25a at 100 mg/kg orally. Bile was collected and weighed at 0–2 h, 0–4 h, 0–6 h, 0–8 h, 0–10 h, 0–12 h, 0–24 h, 0–36 h, and 0–48 h after administration. All samples were stored at −80 °C until analysis.

[3] = test system: rats; set-up: method as in PMID 34601246; conditions: orally administered; cited from earlier work
[4] = in vivo; conditions: male, Sprague-Dawley, rat, po

CC(=O)Nc1ccc(NC(=O)c2ccc(C(C)=O)o2)cc1 [Compound 25a, N-(4-acetamidophenyl)-5-acetylfuran-2-carboxamide]
Blood Plasma Ratio ([1]; 50 ng/mL): 0.84 ± 0.26 | Blood Plasma Ratio ([1]; 500 ng/mL): 0.74 ± 0.06 | Blood Plasma Ratio ([1]; 2500 ng/mL): 0.79 ± 0.15 | mean blood plasma ratio (BPR) ([1]; rats, 50, 500, 2500 ng/mL): 0.74–0.84 | total cumulative excretion fractions of unchanged 25a in urine, feces, and bile [2]: less than 5% | Accumulated Amount in feces ([2]; 0-6 h): 0.248 ± 0.056 mg | Accumulated Amount in urine ([2]; 0-6 h): 0.0129 ± 0.0059 mg | Concentration in feces ([2]; 0-6 h): 6547.5 ± 1407.8 ng/mL | Concentration in urine ([2]; 0-6 h): 1865.0 ± 576.4 ng/mL | The cumulative excretion ratio in feces ([2]; 0-6 h): 1.009 ± 0.233% | The cumulative excretion ratio in urine ([2]; 0-6 h): 0.051 ± 0.021% | cumulative excretion ratio of unchanged 25a in feces ([2]; 100 mg/kg): 3.16% and 3.16% ± 0.96% | cumulative excretion ratio of unchanged 25a in urine ([2]; 100 mg/kg): 0.14% and 0.14% ± 0.05% | Accumulated Amount in feces ([2]; 6-12 h): 0.565 ± 0.130 mg | Accumulated Amount in urine ([2]; 6-12 h): 0.0221 ± 0.0046 mg | Concentration in feces ([2]; 6-12 h): 9237.5 ± 2337.8 ng/mL | Concentration in urine ([2]; 6-12 h): 1696.3 ± 1,244.3 ng/mL | The cumulative excretion ratio in feces ([2]; 6-12 h): 2.261 ± 0.383% | The cumulative excretion ratio in urine ([2]; 6-12 h): 0.089 ± 0.018% | Accumulated Amount in feces ([2]; 12-24 h): 0.798 ± 0.309 mg | Accumulated Amount in urine ([2]; 12-24 h): 0.0305 ± 0.0066 mg | Concentration in feces ([2]; 12-24 h): 6053.3 ± 4545.2 ng/mL | Concentration in urine ([2]; 12-24 h): 869.3 ± 442.0 ng/mL | The cumulative excretion ratio in feces ([2]; 12-24 h): 3.139 ± 0.954% | The cumulative excretion ratio in urine ([2]; 12-24 h): 0.125 ± 0.037% | Accumulated Amount in feces ([2]; 24-36 h): 0.802 ± 0.310 mg | Accumulated Amount in urine ([2]; 24-36 h): 0.0317 ± 0.0077 mg | Concentration in feces ([2]; 24-36 h): 188.2 ± 121.9 ng/mL | Concentration in urine ([2]; 24-36 h): 132.4 ± 108.1 ng/mL | The cumulative excretion ratio in feces ([2]; 24-36 h): 3.153 ± 0.957% | The cumulative excretion ratio in urine ([2]; 24-36 h): 0.131 ± 0.042% | Accumulated Amount in feces ([2]; 36-48 h): 0.802 ± 0.310 mg | Accumulated Amount in urine ([2]; 36-48 h): 0.0327 ± 0.0085 mg | Concentration in feces ([2]; 36-48 h): 7.0 ± 8.8 ng/mL | Concentration in urine ([2]; 36-48 h): 104.4 ± 95.7 ng/mL | The cumulative excretion ratio in feces ([2]; 36-48 h): 3.155 ± 0.956% | The cumulative excretion ratio in urine ([2]; 36-48 h): 0.135 ± 0.047% | Accumulated Amount in feces ([2]; 48-60 h): 0.802 ± 0.310 mg | Accumulated Amount in urine ([2]; 48-60 h): 0.0332 ± 0.0089 mg | Concentration in feces ([2]; 48-60 h): 2.1 ± 3.1 ng/mL | Concentration in urine ([2]; 48-60 h): 49.6 ± 31.9 ng/mL | The cumulative excretion ratio in feces ([2]; 48-60 h): 3.155 ± 0.956% | The cumulative excretion ratio in urine ([2]; 48-60 h): 0.137 ± 0.049% | Accumulated Amount in feces ([2]; 60-72 h): 0.802 ± 0.310 mg | Accumulated Amount in urine ([2]; 60-72 h): 0.0337 ± 0.0090 mg | Concentration in feces ([2]; 60-72 h): 3.8 ± 3.8 ng/mL | Concentration in urine ([2]; 60-72 h): 32.5 ± 11.2 ng/mL | The cumulative excretion ratio in feces ([2]; 60-72 h): 3.156 ± 0.955% | The cumulative excretion ratio in urine ([2]; 60-72 h): 0.139 ± 0.049% | Na+, K+, and Cl− levels in the blood [3]: without disturbing | duration of urea-selective diuresis [3]: 8 h | urine output vs vehicle control [3]: three times higher urine output than vehicle control | MRT [4]: ~5.4 h | MRT ([4]; 50 mg/kg): 5.4 ± 0.8 h | AUC(0-t) ([4]; 100 mg/kg): 6920 ± 377 ng·h/mL
